Assays:
Assay type in all cases: cell-based
[1] = biological target: T1, AMPA-type glutamate receptor GluR4 (Rattus norvegicus, UniProt P19493); assay: GluR4 receptor activity assay (GFP-CaMKII translocation to MLS-NR2B)
T1 construct: expressed in transfected cells; host or cells: HEK-293
Protocol: HEK-293 cells were cotransfected with GluR4 (pRK5-GluR4, about 0.33 μg/well), MLS-NR2B (pSGH-MLS-NR2B, about 0.33 μg/well) and GFP-CaMKII (pEGFP-CaMKII, about 0.1 μg/well) using lipofectamine reagent. During growth, the medium was supplemented with 50 μM CNQX (inhibitor of AMPA receptor). After 48 hours, the transfected cells were subjected to GluR4 activity assay. The growth medium was removed and the cells were washed twice with Ca^2+ and Mg free HBSS containing 2 mM HEPES and 400 μM EGTA. The GluR4 receptor was activated with HBSS solution containing 10 μM glutamate with or without 2 mM Ca^2+ for about 5 minutes. The inhibitor, CNQX (50 μM), when used, was preincubated for 3 minutes with cells in Ca^2+ and Mg^2+-free HBSS followed by activation using the components as described above with 50 μM CNQX. Cells were then fixed and were mounted onto glass slides.

[2] = biological target: T2, NMDA receptor formed of NR1 and NR2B subunits (Rattus norvegicus, UniProt P35439+Q00960); assay: NMDA receptor activity assay (GFP-α-CaMKII translocation signal); conditions: HEK-293 cells transfected with NR1, NR2B and GFP-α-CaMKII; for Ca2+ influx / translocation of GFP-α-CaMKII to NR2B upon receptor activation: glutamate 10 μM and glycine 2 μM with 2 mM CaCl2, about 5 minutes, no signal without extracellular Ca2+
T2 construct: expressed in transfected cells; host or cells: HEK-293

[3] = biological target: T3, vanilloid receptor (TRPV1) (Rattus norvegicus, UniProt O35433); assay: TRPV1 receptor activity assay (GFP-CaMKII translocation to MLS-NR2B)
T3 construct: expressed in transfected cells; host or cells: HEK-293

MLS-NR2B = assay: Ionomycin-mediated Ca2+-influx, cell count of cells with GFP-clustering signal; conditions: HEK-293 cells with MLS-NR2B
Protocol: For transfection, 1.5×10^4 HEK-293 cells were seeded on sterile 12 mm cover slips in 24 well plates (Nunc). After 24 hrs, the cells were cotransfected with plasmid constructs encoding GFP-α-CaMKII (0.1 μg/well) and either of MLS-NR2A or MLS-NR2B (0.25 μg/well), or pRK-NR2A or pRK-NR2B (along with pRc-NR1 for expression of functional NMDA receptor) using Lipofectamine reagent. About 48 hrs following transfection, cells were washed with Hank's balanced salt solution (HBSS) containing 20 mM HEPES and 1.4 mM EGTA. The cells were then incubated with 15 μM ionomycin in the same buffer for 10 min. Subsequently the cells were incubated in the same buffer containing 2 mM CaCl2 and 3 μM ionomycin. Cells were fixed with 3.7% paraformaldehyde in PBS (Phosphate-buffered saline, 10 mM disodium hydrogen phosphate, 1.8 mM potassium dihydrogen orthophosphate, 140 mM sodium chloride, 2.7 mM potassium chloride, pH adjusted to 7.4) at different time points after addition of calcium, mounted with mountant containing DABCO (antifade) and were observed through either a simple fluorescence microscope or a confocal fluorescence microscope (TCS -SP2-AOBS from Leica).
Appearance of perinuclear granules due to mitochondrial localization of GFP-α-CaMKII is taken as the signal for binding between GFP-α-CaMKII and MLS-NR2B. […]

T2 sequence (Q00960 27-1482, other chains not shown): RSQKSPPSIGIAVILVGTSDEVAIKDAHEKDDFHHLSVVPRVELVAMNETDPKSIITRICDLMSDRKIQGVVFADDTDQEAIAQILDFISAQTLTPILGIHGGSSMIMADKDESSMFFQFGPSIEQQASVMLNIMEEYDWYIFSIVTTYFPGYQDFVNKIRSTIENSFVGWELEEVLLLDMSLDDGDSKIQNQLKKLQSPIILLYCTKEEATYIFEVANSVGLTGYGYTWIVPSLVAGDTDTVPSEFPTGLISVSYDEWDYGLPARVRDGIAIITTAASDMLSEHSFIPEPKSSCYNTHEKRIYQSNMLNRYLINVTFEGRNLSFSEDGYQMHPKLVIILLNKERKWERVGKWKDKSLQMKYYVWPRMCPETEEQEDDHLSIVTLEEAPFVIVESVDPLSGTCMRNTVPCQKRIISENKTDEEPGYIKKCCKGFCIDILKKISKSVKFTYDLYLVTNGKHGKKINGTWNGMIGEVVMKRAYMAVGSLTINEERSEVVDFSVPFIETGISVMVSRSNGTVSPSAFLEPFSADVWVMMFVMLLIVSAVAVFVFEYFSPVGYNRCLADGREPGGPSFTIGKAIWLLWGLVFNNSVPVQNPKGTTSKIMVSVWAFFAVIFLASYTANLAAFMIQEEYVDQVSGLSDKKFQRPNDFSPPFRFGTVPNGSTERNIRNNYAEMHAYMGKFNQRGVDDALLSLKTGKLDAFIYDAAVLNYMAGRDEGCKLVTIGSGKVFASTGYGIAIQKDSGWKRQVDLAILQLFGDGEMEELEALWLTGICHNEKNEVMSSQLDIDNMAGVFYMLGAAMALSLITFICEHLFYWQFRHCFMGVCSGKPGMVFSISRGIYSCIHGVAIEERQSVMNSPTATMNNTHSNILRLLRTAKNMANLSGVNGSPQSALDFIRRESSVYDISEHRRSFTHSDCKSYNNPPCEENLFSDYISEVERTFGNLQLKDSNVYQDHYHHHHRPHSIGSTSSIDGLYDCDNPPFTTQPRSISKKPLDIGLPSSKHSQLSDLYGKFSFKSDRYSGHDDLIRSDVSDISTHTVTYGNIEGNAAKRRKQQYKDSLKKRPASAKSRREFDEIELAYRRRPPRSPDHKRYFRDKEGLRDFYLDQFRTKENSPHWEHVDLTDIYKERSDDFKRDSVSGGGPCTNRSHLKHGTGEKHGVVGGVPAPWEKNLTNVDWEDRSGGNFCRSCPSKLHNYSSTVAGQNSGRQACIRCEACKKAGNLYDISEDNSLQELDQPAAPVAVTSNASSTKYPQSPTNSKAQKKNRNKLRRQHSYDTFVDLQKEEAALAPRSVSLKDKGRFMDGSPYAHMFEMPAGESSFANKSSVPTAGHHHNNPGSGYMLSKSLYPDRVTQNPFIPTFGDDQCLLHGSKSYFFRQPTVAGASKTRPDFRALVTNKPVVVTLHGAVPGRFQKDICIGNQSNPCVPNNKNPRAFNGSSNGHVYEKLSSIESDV
T1 sequence (P19493 22-902 limits assumed): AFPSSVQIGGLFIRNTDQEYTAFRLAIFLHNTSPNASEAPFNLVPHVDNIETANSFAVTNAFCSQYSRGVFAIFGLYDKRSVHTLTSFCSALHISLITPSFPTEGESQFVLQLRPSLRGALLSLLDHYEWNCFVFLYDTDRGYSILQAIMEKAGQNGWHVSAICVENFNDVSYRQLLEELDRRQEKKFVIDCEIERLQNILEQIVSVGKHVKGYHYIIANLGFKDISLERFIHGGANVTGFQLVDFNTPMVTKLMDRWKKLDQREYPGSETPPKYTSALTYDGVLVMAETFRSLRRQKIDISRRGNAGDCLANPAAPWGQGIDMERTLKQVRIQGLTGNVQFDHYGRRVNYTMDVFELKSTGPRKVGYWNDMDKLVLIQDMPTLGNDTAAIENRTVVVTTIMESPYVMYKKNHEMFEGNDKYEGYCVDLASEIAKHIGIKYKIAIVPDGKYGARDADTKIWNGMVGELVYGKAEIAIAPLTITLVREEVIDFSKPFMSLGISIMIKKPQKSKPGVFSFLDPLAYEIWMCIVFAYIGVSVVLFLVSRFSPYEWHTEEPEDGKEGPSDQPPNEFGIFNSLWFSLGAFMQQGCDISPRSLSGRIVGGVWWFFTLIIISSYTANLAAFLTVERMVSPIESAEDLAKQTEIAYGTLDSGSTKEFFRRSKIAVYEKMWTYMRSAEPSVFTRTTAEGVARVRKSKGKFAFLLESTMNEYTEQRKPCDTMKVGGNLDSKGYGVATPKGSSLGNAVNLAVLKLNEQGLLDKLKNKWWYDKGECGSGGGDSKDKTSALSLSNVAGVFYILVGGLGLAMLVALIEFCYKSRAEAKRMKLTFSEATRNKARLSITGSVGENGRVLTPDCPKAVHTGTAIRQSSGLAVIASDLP
T3 sequence (O35433 whole entry): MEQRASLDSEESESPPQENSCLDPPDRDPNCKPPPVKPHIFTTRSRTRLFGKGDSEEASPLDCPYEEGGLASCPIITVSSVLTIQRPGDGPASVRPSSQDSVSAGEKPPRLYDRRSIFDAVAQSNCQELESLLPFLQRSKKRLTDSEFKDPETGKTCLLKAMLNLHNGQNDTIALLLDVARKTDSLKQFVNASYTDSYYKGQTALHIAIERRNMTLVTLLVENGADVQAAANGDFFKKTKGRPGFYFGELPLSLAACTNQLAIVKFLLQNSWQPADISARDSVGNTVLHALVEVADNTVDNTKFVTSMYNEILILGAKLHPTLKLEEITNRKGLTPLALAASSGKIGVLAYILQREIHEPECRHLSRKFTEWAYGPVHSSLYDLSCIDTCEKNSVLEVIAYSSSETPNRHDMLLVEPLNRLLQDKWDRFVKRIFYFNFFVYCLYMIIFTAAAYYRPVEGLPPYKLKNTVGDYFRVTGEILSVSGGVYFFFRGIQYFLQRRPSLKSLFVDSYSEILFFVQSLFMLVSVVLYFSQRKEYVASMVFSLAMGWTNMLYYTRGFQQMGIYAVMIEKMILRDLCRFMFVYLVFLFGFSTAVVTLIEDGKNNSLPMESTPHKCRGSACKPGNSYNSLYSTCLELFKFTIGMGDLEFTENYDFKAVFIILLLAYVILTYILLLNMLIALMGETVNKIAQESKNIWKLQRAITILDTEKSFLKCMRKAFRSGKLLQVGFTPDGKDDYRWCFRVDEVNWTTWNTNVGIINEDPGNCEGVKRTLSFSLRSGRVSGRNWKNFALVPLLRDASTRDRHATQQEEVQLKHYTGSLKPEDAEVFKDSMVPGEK

N#Cc1cc2[nH]c(=O)c(=O)[nH]c2cc1[N+](=O)[O-] [CNQX]
Generation of the signal in presence of specific inhibitor ([1]; CNQX 50 μM, preincubated 3 minutes, then glutamate activation (FIG. 11)): could be blocked

C[C@]12N[C@H](Cc3ccccc31)c1ccccc12 [MK-801]
Signal generation in presence of NMDA receptor specific inhibitor ([2]; activated with glutamate and glycine, 1 mM AP-5 or 10 μM MK-801): blocked

COc1cc(CNC(=O)CCCC/C=C/C(C)C)ccc1O [capsaicin]
Green punctae as signal for Ca2+-channel activity of TRPV1 upon activation ([3]; HEK-293 cells cotransfected with TRPV1, GFP-CaMKII and MLS-NR2B, capsaicin 3 μM or 10 nM with 2 mM Ca2+, 5 minutes): developed green punctae

Oc1cc2c(cc1O)CN(C(=S)NCCc1ccc(Cl)cc1)CCC2 [capsazepine]
Signal generation due to activation of TRPV1 in presence of inhibitor ([3]; capsazepine 50 μM, preincubated 3 minutes, then capsaicin activation with Ca2+ (FIG. 10)): could be inhibited

N[C@@H](CCC(=O)O)C(=O)O [glutamate]
Ca2+ influx / translocation of GFP-α-CaMKII to NR2B upon receptor activation [2]: caused influx of Ca^2+ | Green punctae (translocation of GFP-CaMKII to MLS-NR2B) upon receptor activation ([1]; HEK-293 cells transfected with GluR4, GFP-CaMKII and MLS-NR2B, 10 μM glutamate with 2 mM Ca2+, about 5 minutes): caused the formation of green punctae

NCC(=O)O [glycine]
Ca2+ influx / translocation of GFP-α-CaMKII to NR2B upon receptor activation [2]: caused influx of Ca^2+

T286D-CaMKII: T286D mutant form of the GFP fusion of α-CaMKII used as Ca2+ sensor
Cell count (percentage of green cells with binding signal) relative to wild-type GFP-α-CaMKII (MLS-NR2B; ionomycin-mediated Ca2+ influx (FIG. 5)): increased (more than two fold) cell count | Lowest extracellular [Ca2+] giving response (MLS-NR2B; ionomycin-mediated Ca2+ influx, different extracellular [Ca2+] (FIG. 6)): 2 nM

— patent publication US20160320414A1, “Assay for Detection of Transient Intracellular CA2+” (Rajiv Gandhi Centre for Biotechnology, priority 2007, published 2016)
